The results in this text go back to patent US6455045B1, “Immunogenic compounds with in particular an anti-cytokine effect, preparation process, pharmaceutical compositions and kits containing them” (priority 1991, dated 2002).

No end group written: not given here.

In assay [1] the test system is HIV-1 env bands (gp160, gp120, gp41). Nature of the assay: Western blot (Abott HIV-1 detection kit) with serums of peptide-immunized mice. It counts as in vivo. The conditions noted are these: 15 μg per injection days 0, 30, 60, day 70. How it is done: Four batches of five mice were chosen to receive the peptides SI Nos. 1, 2, 6, 10 respectively.
The peptides prepared as described in Example 2 were injected on days 0, 30, 60 in a quantity of 15 μg per injection. On day 70 the mice were sacrificed, their T-cells were isolated (spleen and ganglia) and their serum was stored.
(A western blot detects proteins with antibodies after separation by electrophoresis.)

The subject of assay [2] is T-cells originating from fresh human blood. The assay is classed as cell-based.

As for “His-Glu-Asp-Ile-Ile-Ser-Leu-Trp-Asp-Gln-Ser-Leu-Lys [SI No. 6]”, the “Western blot bands showing a signal” value in assay [1] was “gp60 and gp120 bands showed a signal”. In addition, the “activation of T-cells (incorporation of labelled thymidine)” value (“activation of T-cells” below) in assay [2] is recorded as “low activation according to a dose-effect curve”.

Consider “SI No. 1: peptide SI No. 1, a or b form not stated; prepared in proteosomes as in Example 2 (probably 1b); HIV-1 gag P7 region (IARNCRAPRKKG)”, for which the “Western blot bands showing a signal” value in assay [1] was “gp60 and gp120 bands showed a signal”.

As for QLLLNGSLAEEE [SI No. 10], in assay [1], the “Western blot bands showing a signal” value is “gp60 and gp120 bands showed a signal”. For the same substance, the “activation of T-cells” value in assay [2] is “low activation according to a dose-effect curve”.

As to “SI No. 2: peptide SI No. 2, a or b form not stated; prepared in proteosomes as in Example 2 (probably 2b); HIV-1 gp41 region 735-753 (DRPEGIEEEGGERDRDRS)”, in assay [1], the “Western blot bands showing a signal” value was “gp160 and gp41”.

In the case of “Cys-Ser-Ala-Thr-Glu-Lys-Leu-Trp-Val-Thr-Val-Tyr-Tyr [SI No. 7]”, the “activation of T-cells” value in assay [2] is given as “low activation according to a dose-effect curve”.

“Cys-Gln-His-Leu-Leu-Gln-Leu-Thr-Val-Trp-Gly-Ile-Lys-Glu or Gln-Leu-Glu Gln-Ala-Arg-Ile-Leu-Ala-Val-Glu-Arg-Tyr-Leu-Lys-Asp-Gln [SI No. 5]”: in assay [2], the “activation of T-cells” value is “low activation according to a dose-effect curve”.
